Assay results as given in publication PMC8617031, “Development of a BCL-xL and BCL-2 dual degrader with improved anti-leukemic activity,” (Nature Communications, 2021).
“And” between values parts separate entries of the source, which are not always exact repeats. Equal entries are not always repeated.

Tests used:
[1] = test system: BCL-2/PROTAC/VCB ternary complex (HiBit-BCL-2, HaloTag-VHL); assay: NanoBRET intracellular ternary complex formation in 293T cells, BCL-2; type: cell-based, human; conditions: NanoBRET, 293T cells, 6 h
Procedure, shortened: (§1)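 293T cells were transfected with HiBit-BCL-xL or HiBit-BCL-2 plus HaloTag-VHL and incubated overnight with or without HaloTag NanoBRET 618 ligand in 4% FBS Opti-MEM. Serially diluted compounds were applied for 6 h at 37 °C. mBRET ratio from donor emission (450/50 nm) and acceptor emission (610 nm longpass) after Nano-Glo substrate.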

[2] = test system: BCL-xL/PROTAC/VCB ternary complex (HiBit-BCL-xL, HaloTag-VHL); assay: NanoBRET intracellular ternary complex formation in 293T cells, BCL-xL; type: cell-based, human; conditions: NanoBRET, 293T cells, 6 h
Procedure, shortened: as §1

BCL-xL = target: T1, BCL-xL (Homo sapiens, UniProt Q07817); assay: BCL-xL degradation by immunoblot in 293T cells; type: cell-based; conditions: 16 h; for normalized BCL-xL protein content: 293T, Supplementary Fig. 1b
T1 construct: endogenous in cells
Procedure: (§2) The DC50 and Dmax were calculated using Prism based on the ImageJ-quantified western blots in Supplementary Fig. 4. c, d AlphaLISA assay to determine the formation of BCL-xL/PROTAC/VHL-ELOC-ELOB (VCB) (c) or BCL-2/PROTAC/VCB (d) ternary complex in a cell-free condition. Data represent the mean of a single experiment with 2 technical replicates. Similar results were obtained in one more independent experiment. e, f NanoBRET assays evaluating intracellular BCL-xL/PROTAC/VCB (e) or BCL-2/PROTAC/VCB (f) ternary complex formation. […] Data are expressed as mean ± s.e.m. of three biological replicates. Source data are provided as a Source data file.
(§3) Representative immunoblots are shown in (a–d) and β-actin was used as a loading control in all immunoblot analyses. The normalized protein content in the immunoblots is presented as mean values ± s.e.m. (n = 3 biologically independent experiments) in the bar graph (bottom panel). e, f The formation of BCL-xL/PROTAC/VCB (e) and BCL-2/PROTAC/VCB (f) ternary complexes in a cell-free condition was determined by AlphaLISA assay. Data represent the mean of a single experiment with 2 technical replicates. […] Source data are provided as a Source data file.
(§4) Cells were collected, washed once with ice-cold phosphate-buffered saline, pH 7.2 (PBS, cat. no. 20012027; Thermo Fisher Scientific) and lysed in RIPA lysis buffer (Cat. No. BP-115DG, Boston Bio Products, Ashland, MA, USA) supplemented with protease and phosphatase inhibitor cocktails (Cat. No. PPC1010, Sigma-Aldrich, St. Louis, MO, USA) through sonication. The samples were centrifuged at 14,000 r.p.m. for 5 min and the supernatants were transferred into a new tube. The protein concentration in the supernatants was determined using the Pierce BCA protein Assay kit (cat. no. 23225, Thermo Fisher Scientific). The protein concentration was normalized, and the samples were reduced in 4× Laemmli’s SDS-sample buffer (cat. no. BP-110R, Boston Bio Products) and denatured at 95 °C for 5 min. An equal amount of protein samples (20–40 μg per lane) were resolved using precast 4–20% Tris-glycine gels (Mini-PROTEAN TGX, cat. no. 456–1094, Bio-Rad), and resolved proteins were transferred onto 0.2-µm pore size polyvinylidene difluoride (PVDF) blotting membranes (cat. no. LC2002, Thermo Fisher Scientific) using mini trans-blot electrophoretic transfer cell (Bio-Rad). The membranes were blocked with non-fat dry milk (5% wt/vol) in 1× Tris-buffered saline-Tween-20 (TBST, cat. no. J77500, Affymetrix) for 1 h at room temperature, and were subsequently probed with primary antibodies at a predetermined optimal concentration in non-fat dry milk (5% wt/vol in TBST) overnight at 4 °C. The membranes were washed three times (5 min each) in TBST and then incubated with horse radish peroxidase (HRP)-conjugated secondary antibodies for 1 h at room temperature. Following sufficient washing with TBST, the membranes were exposed with chemiluminescent HRP substrate (cat. no. WBKLS0500, MilliporeSigma), and the signal was detected using the ChemiDoc MP Imaging System (Bio-Rad) and quantified using the ImageJ (v1.53a) software from NIH.

BCL-2 = target: T2, BCL-2 (Homo sapiens, UniProt P10415); assay: BCL-2 degradation by immunoblot in 293T cells; type: cell-based; conditions: 293T, 16 h, Supplementary Fig. 1b
T2 construct: endogenous in cells
Procedure: as §2, §3, §4

[3] = XZ739 concentration 0.003 (unit not given), untreated = 100, 2 replicates

T1 sequence (Q07817 whole entry): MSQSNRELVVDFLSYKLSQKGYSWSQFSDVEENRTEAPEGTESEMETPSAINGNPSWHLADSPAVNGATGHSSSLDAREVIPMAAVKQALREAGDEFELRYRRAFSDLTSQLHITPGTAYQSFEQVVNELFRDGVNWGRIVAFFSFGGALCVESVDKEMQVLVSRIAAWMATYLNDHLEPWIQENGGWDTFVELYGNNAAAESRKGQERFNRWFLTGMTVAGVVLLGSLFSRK
T2 sequence (P10415 whole entry): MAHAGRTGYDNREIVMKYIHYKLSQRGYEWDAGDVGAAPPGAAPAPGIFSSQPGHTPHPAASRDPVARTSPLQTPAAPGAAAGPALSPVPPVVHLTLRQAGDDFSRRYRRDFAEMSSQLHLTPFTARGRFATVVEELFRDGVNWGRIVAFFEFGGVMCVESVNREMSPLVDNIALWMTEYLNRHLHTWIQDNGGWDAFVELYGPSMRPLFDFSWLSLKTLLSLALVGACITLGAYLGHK

- BCL-xL degradation (in words) (BCL-xL; 293T cells): could degrade BCL-xL
- normalized BCL-xL protein content (BCL-xL; [3]): 88 and 95
- normalized BCL-xL protein content (BCL-xL; concentration 0.01): 85 and 86
- normalized BCL-xL protein content (BCL-xL; concentration 0.03): 76 and 80
- normalized BCL-xL protein content (BCL-xL; concentration 0.1): 67 and 65
- normalized BCL-xL protein content (BCL-xL; concentration 0.3): 32 and 40
- normalized BCL-xL protein content (BCL-xL; concentration 1): 32 and 31
- normalized BCL-xL protein content (BCL-xL; concentration 3): 22 and 19
- normalized BCL-2 protein content (BCL-2; [3]): 116 and 103
- normalized BCL-2 protein content (BCL-2; concentration 0.01): 119 and 99
- normalized BCL-2 protein content (BCL-2; concentration 0.03): 113 and 104
- normalized BCL-2 protein content (BCL-2; concentration 0.1): 114 and 109
- normalized BCL-2 protein content (BCL-2; concentration 0.3): 119 and 101
- normalized BCL-2 protein content (BCL-2; concentration 1): 102 and 95
- normalized BCL-2 protein content (BCL-2; concentration 3): 97 and 102
SMILES: CN(CCOCCOCCOCCNc1cccc2c1C(=O)N(C1CCC(=O)NC1=O)C2=O)CC[C@H](CSc1ccccc1)Nc1ccc(S(=O)(=O)NC(=O)c2ccc(N3CCN(CC4=C(c5ccc(Cl)cc5)CCC(C)(C)C4)CC3)cc2)cc1S(=O)(=O)C(F)(F)F (some centres unmarked) [XZ739, reference compound]
- intracellular ternary complex formation with BCL-2 (in words) [1]: formed cellular ternary complexes with both BCL-xL and BCL-2
- intracellular ternary complex formation with BCL-xL (in words) [2]: formed cellular ternary complexes with both BCL-xL and BCL-2
